Reference: patent US20250000882A1, “LYSOPHOSPHATIDYLCHOLINE COMBINATIONS AS A THERAPY TO TREAT CARDIAC ARREST” (THE FEINSTEIN INSTITUTES FOR MEDICAL RESEARCH, priority 2021, published 2025)

Legend:
neuronal cells = settings: rats supplemented with LPC; cited from earlier work
[1] = tested on: rats after 10 minutes of asphyxia-induced cardiac arrest; experiment: Rat survival and neurologic function (mNDS) after 10-minute asphyxia-induced cardiac arrest with LPC supplementation; type: in vivo; settings: for rat survival for 72 hr after resuscitation (Kaplan-Meier) / modified neurologic deficit score (mNDS) at 24 hours / modified neurologic deficit score (mNDS) at 72 hours: 10-minute cardiac arrest; for rat survival for 72 hr after resuscitation (Kaplan-Meier): 6 mg/kg LPC via femoral vein 1 minute after ROSC, vs vehicle; for modified neurologic deficit score (mNDS) at 24 hours / modified neurologic deficit score (mNDS) at 72 hours: surviving rats, 6 mg/kg, 100% = perfect score
Description: (§1) The study was conducted using adult male Sprague-Dawley rats (400-500 g, Charles River Laboratories, Wilmington, MA) utilizing procedures for asphyxia-induced cardiac arrest and cardiopulmonary resuscitation (CPR). Briefly, asphyxial cardiac arrest was induced by stopping ventilation after injecting vecuronium bromide (2 mg/kg). After 10 or 14 minutes of asphyxia-cardiac arrest, ventilation was restarted with chest compressions. Typically, rats achieve ROSC within 1 minute after the initiation of CPR. Rats were extubated 2 hours after ROSC. Blood samples were collected from the femoral artery at baseline and multiple time points during cardiac arrest or postresuscitation. Plasma was separated using centrifugation at 1,000×g for 10 minute and stored at −80° C. Brain tissue was harvested from animals that survived for 72 hours after perfusion with saline and fixed with 4% paraformaldehyde.
To test the beneficial effect of LPC supplementation, LPC (18:1) was first administered because it was the only commercially available species out of the four LPC species decreased after 10 minute of cardiac arrest. The study was then extended to test the effect of attached fatty acid by including custom-made LPC (22:6) and LPC (18:0). Different groups of control rats for each set of experiment for accurate assessment were used. Rats were randomized into each group (n=12). Baseline characteristics of rats were not different between the groups in each set of experiment.
The LPC species mixed with 0.5% bovine serum albumin (BSA) in phosphate-buffered saline (0.5 mL) was injected over 1 minute via the femoral vein cannula beginning 1 minute after ROSC, with vehicle group injected with only BSA. 6 mg/kg of LPC was injected, because this dosage preserved LPC level in post-resuscitation plasma for 2 hours after 10-minute cardiac arrest. The purities of the injected LPC species were over 98%.
Survival was followed for 72 hours with brain function evaluated in a blinded manner using the modified neurologic deficit score (mNDS) after resuscitation for surviving rats. The mNDS is expressed as percentage, with 100% representing perfect score.
Kaplan-Meier curves compared survival between the LPC and vehicle groups using the Wilcoxon test. For phospholipids levels, Mann-Whitney U test was used to compare two independent groups. Repeated measures analysis of variance was used to compare the vital signs between two groups. Spearman correlation coefficients were calculated to evaluate the correlation between blood pH and plasma LPC levels. For changes in plasma LPC levels postreperfusion, we performed Jonckheere-Terpstra test. Statistical analyses were performed using the JMP software (Version 14.2, SAS Institute, Cary, NC). p values of less than 0.05 were considered statistically significant. Data were expressed as the mean±se of the mean.

[2] = tested on: neurons in hippocampal CA1 region and cortex; experiment: Brain histology (Nissl and Fluoro-Jade B staining) at 72 hours post-resuscitation; type: in vivo, rat; settings: for number of neurons in the hippocampus (Nissl staining), % of control values: 10-minute cardiac arrest; for degenerating cells in the cortex (FJB staining), fold increase compared with control value: vehicle seven-fold
Description: as §1
Plasma phospholipids were analyzed using plasma samples obtained from humans and rats following our established high-performance liquid chromatography-mass spectrometry (HPLC-MS) method. For brain histology, serial coronal sections (14 μm) were prepared from the fixed brain tissue using a cryostat (CM1900, Leica, Germany). The sections were used for Nissl staining to determine the number of surviving neurons in hippocampal CA1 region or Fluoro-Jade B (FJB) staining to count the number of degenerative neurons in the cortex.

[3] = tested on: rats after 12 minutes of asphyxia-induced cardiac arrest; experiment: 12 minutes of asphyxia-induced cardiac arrest rat model (survival, plasma troponin I, SSEP); type: in vivo; settings: 12 minutes of cardiac arrest
Description: as §1
The therapeutic effects of LPC species as well as combination of all three species was then tested using 12 minutes of cardiac arrest, which induces more severe injury than 10 minutes of cardiac arrest. […] Also compared was the plasma troponin I level to assess the effects of individual LPC species LPC (18:0), LPC (18:1), LPC (22:6) and the LPC Combination for heart function (see FIG. 8 and FIG. 9 respectively). […] Since these rats are severely injured and mNDS are not appropriate to measure their brain function, we used SSEP to compare the brain function between LPC (18:1) and LPC combination groups.

IL-6 = experiment: Plasma IL-6 level, 10 minutes of asphyxia-induced cardiac arrest rat model; type: in vivo; settings: after 10 minutes of cardiac arrest
Description: (§2) Using the 10 minutes of asphyxia-induced cardiac arrest rat model, supplementing LPC (18:1) decreased inflammatory IL-6′ levels and increased the anti-inflammatory IL-10 levels in rat plasma after 10 minutes of cardiac arrest (FIG. 15A and FIG. 15B).

IL-10 = experiment: Plasma IL-10 level, 10 minutes of asphyxia-induced cardiac arrest rat model; type: in vivo; settings: after 10 minutes of cardiac arrest
Description: as §2

heart = experiment: Heart ejection fraction at 2 h after resuscitation; type: in vivo, rat; settings: 10 min cardiac arrest per FIG. 13 legend
Description: (§3) The beneficial effects of LPC (18:2), LPC(20:4), and LPC (16:0) for their beneficial effects using the same cardiac arrest model were also tested. […] Furthermore, none of the LPC (18:2) treated rats were able to walk whereas 40 to 50% of LPC (22:6) and LPC (18:1) treated rats were able to walk.

lung = experiment: Lung wet-to-dry weight ratio after cardiac arrest; type: in vivo, rat
Description: as §3

[4] = diet supplemented with LPC; cited from earlier work

Compound	rat survival for 72 hr after resuscitation (Kaplan-Meier) [1]	modified neurologic deficit score (mNDS) at 24 hours [1] [%]	modified neurologic deficit score (mNDS) at 72 hours [1] [%]	number of neurons in the hippocampus (Nissl staining), % of control values [2] [%]	degenerating cells in the cortex (FJB staining), fold increase compared with control value [2]	plasma troponin I level [3]	further results
CCCCCCCCCCCCCC(=O)OC[C@@H](O)COP(=O)([O-])OCC[N+](C)(C)C [LPC (14:0)]	–	–	–	–	–	–	protection of neuronal cells after brain ischemia (neuronal cells): provided protecting to neuronal cells
lysophosphatidylcholine (18:1) [LPC (18:1)]	significantly improved rat survival	66	76	86	decreased to a three-fold increase	only the LPC Combination showed a decrease	rat survival (Kaplan-Meier) [3]: most significantly improved rat survival; return of the SSEP signal (brain function) [3]: did not happen; inflammatory IL-6 levels in rat plasma (IL-6): decreased; anti-inflammatory IL-10 levels in rat plasma (IL-10): increased
lysophosphatidylcholine (18:2) [LPC (18:2)]	–	–	–	–	–	–	neuroprotective effect (mNDS at 48 hours and 72 hours) ([1]; 10 min cardiac arrest per FIG. 12 legend): not as good as LPC (18:1) or LPC (22:6); rat survival (Kaplan-Meier) ([1]; "same cardiac arrest model", 10 min cardiac arrest per FIG. 11 legend): significantly improve survival; treated rats able to walk ([1]; after cardiac arrest): none; heart ejection fraction (heart): improved; lung wet-to-dry ratio (lung): Reduced
lysophosphatidylcholine (22:6) [LPC (22:6)]	improved rat survival	51	86	88	decreased to a three-fold increase	only the LPC Combination showed a decrease	cognitive functions [4]: improved their cognitive functions
lysophosphatidylcholine (18:0) [LPC (18:0)]	no improved outcomes	–	–	–	–	only the LPC Combination showed a decrease	effect on neuronal cellular morphology [2]: minimal effect
